Assay results published in ChEMBL document CHEMBL1127696, “Non-peptide renin inhibitors containing 2-(((3-phenylpropyl)phosphoryl)oxy)alkanoic acid moieties as P2-P3 replacements” (J Med Chem, 1994).

Experiments:
[1] = target: T1, Renin (Homo sapiens, UniProt P00797); test: In vitro inhibition of human renin.
T1 sequence (P00797 whole entry): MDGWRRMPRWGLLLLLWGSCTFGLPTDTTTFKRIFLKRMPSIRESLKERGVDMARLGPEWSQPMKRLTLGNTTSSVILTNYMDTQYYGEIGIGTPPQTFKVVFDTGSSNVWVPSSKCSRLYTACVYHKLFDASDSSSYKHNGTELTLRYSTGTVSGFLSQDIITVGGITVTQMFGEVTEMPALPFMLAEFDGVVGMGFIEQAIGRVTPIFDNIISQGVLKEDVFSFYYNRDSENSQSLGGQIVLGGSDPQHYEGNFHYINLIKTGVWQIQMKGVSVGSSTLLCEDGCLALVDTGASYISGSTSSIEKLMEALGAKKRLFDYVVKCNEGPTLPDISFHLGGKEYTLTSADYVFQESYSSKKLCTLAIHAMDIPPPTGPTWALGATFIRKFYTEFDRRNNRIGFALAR

[2] = target: T2, Cathepsin D (Bos taurus, UniProt P80209); test: In vitro inhibition of bovine cathepsin D.
T2 sequence (P80209 whole entry): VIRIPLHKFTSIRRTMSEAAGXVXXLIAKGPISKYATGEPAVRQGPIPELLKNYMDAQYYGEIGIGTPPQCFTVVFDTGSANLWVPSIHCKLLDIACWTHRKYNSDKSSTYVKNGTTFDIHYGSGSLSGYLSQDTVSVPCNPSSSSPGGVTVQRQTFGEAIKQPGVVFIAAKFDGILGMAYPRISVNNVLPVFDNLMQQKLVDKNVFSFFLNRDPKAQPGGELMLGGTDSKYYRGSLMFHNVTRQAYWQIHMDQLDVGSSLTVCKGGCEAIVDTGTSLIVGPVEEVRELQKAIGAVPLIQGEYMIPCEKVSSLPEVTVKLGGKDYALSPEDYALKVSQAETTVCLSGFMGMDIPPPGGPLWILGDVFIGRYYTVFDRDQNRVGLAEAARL

[3] = target: Pepsin A (Sus scrofa, UniProt P00791); test: In vitro inhibition of porcine pepsin.
Sequence of Pepsin A (P00791 whole entry): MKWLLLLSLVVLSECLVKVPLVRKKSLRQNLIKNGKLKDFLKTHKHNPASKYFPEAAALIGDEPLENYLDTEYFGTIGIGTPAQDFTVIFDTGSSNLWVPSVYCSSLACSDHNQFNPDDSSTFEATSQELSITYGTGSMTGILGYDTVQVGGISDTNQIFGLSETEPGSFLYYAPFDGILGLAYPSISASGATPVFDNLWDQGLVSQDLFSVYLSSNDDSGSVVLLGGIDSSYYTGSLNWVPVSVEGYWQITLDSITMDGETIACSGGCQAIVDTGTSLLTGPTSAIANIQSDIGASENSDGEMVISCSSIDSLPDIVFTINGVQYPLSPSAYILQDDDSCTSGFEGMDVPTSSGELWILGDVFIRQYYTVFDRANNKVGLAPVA

| SMILES | IC50 [1] [nM] | IC50 [2] [µM] | IC50 [3] [µM] |
| --- | --- | --- | --- |
| CCCCNC(=O)[C@H](C)C[C@H](O)[C@H](CC1CCCCC1)NC(=O)[C@H](CCCC)OP(=O)(CCCc1ccccc1)OCC (stereo in doubt; 7l) | 215 | > 10 | > 10 |
| CCC[C@@H](OP(=O)(CCCc1ccccc1)OCC)C(=O)N[C@@H](CC1CCCCC1)[C@@H](O)[C@@H](O)C1CC1 (stereo in doubt; 8h) | 20 | 4.15 | > 10 |
| CCCC[C@H](OP(=O)(O)CCCc1ccccc1)C(=O)N[C@@H](CC1CCCCC1)[C@@H](O)CC(=O)N[C@@H](C(=O)NCc1cnc(C)nc1N)[C@@H](C)CC | 58 | > 10 | > 10 |
| CCC[C@@H](OP(=O)(CCCc1ccccc1)OCC)C(=O)N[C@@H](CC1CCCCC1)[C@@H](O)[C@@H](O)CC(C)C (stereo in doubt; 8f) | 17.7 | 2.15 | > 10 |
| CCC[C@@H](OP(=O)(CCCc1ccccc1)OCC)C(=O)N[C@@H](CC1CCCCC1)[C@@H](O)[C@@H](O)C1CC1 (stereo in doubt; 8i) | 155 | > 10 | > 10 |
| CCCCNC(=O)[C@H](C)C[C@H](O)[C@H](CC1CCCCC1)NC(=O)[C@@H](CCCC)OP(=O)(CCCc1ccccc1)OCC (stereo in doubt; 7i) | 22.5 | > 10 | > 10 |
| CCCCNC(=O)[C@H](C)C[C@H](O)[C@H](CC1CCCCC1)NC(=O)[C@@H](CCCC)OP(=O)(CCCc1ccccc1)OCC (stereo in doubt; 7j) | 350 | > 10 | > 10 |
| CCCCNC(=O)[C@H](C)C[C@H](O)[C@H](CC1CCCCC1)NC(=O)[C@H](CCCC)OP(=O)(CCCc1ccccc1)OCC (stereo in doubt; 7k) | 15 | 2.8 | > 10 |
| CCC[C@@H](OP(=O)(CCCc1ccccc1)OCC)C(=O)N[C@@H](CC1CCCCC1)[C@@H](O)[C@@H](O)CC(C)C (stereo in doubt; 8g) | 130 | > 10 | > 10 |

More lines, now with the values ahead:

| IC50 [1] [nM] | IC50 [2] [µM] | IC50 [3] [µM] | SMILES |
| --- | --- | --- | --- |
| 16 | > 10 | > 10 | CCCCNC(=O)[C@H](C)C[C@H](O)[C@H](CC1CCCCC1)NC(=O)[C@@H](C)OP(=O)(O)CCCc1ccccc1 |
| 2.8 | 2.3 | 10 | CCCCNC(=O)[C@@H](C[C@H](O)[C@H](CC(C)C)NC(=O)[C@H](CCCC)OP(=O)(O)CCCc1ccccc1)C(C)C |
| 4.2 | > 10 | > 10 | CCCCNC(=O)[C@H](C)C[C@H](O)[C@H](CC1CCCCC1)NC(=O)[C@H](CCC)OP(=O)(O)CCCc1ccccc1 |
| 55 | > 10 | > 10 | CCCC[C@H](OP(=O)(O)CCCc1ccccc1)C(=O)N[C@@H](CC1CCCCC1)[C@@H](O)C(=O)OC(C)C |
| 360 | > 10 | > 10 | CCCCNC(=O)[C@@H](C)C[C@@H](O)[C@@H](CC1CCCCC1)NC(=O)[C@H](CCCC)OP(=O)(O)CCCCc1ccccc1 |
| 2.5 | > 10 | > 10 | CCCCNC(=O)[C@H](C)C[C@H](O)[C@H](CC1CCCCC1)NC(=O)[C@H](CCCC)OP(=O)(O)CCCc1ccccc1 |
| 17.5 | > 10 | > 10 | CCCCNC(=O)[C@H](C)C[C@H](O)[C@H](CC1CCCCC1)NC(=O)[C@H](C)OP(=O)(O)CCCc1ccccc1 |
| 4.8 | > 10 | > 10 | CCCCNC(=O)[C@@H](C)C[C@@H](O)[C@@H](CC1CCCCC1)NC(=O)[C@H](CCCC)OP(=O)(O)CCCc1ccccc1 |
| 25 | > 10 | > 10 | CCCC[C@H](OP(=O)(O)CCCc1ccccc1)C(=O)N[C@@H](CC1CCCCC1)[C@@H](O)C(O)CC(C)C (stereo partly drawn) |
| 46 | > 10 | > 10 | CCCCNC(=O)[C@@H](C)C[C@@H](O)[C@@H](CC1CCCCC1)NC(=O)[C@H](CCCC)OP(=O)(O)CCc1ccccc1 |
| 3.8 | > 10 | > 10 | CCCCNC(=O)[C@H](C)C[C@H](O)[C@H](CC1CCCCC1)NC(=O)[C@@H](CCC)OP(=O)(O)CCCc1ccccc1 |
| 115 | > 10 | > 10 | CCCC[C@H](OP(=O)(O)CCCc1ccccc1)C(=O)N[C@@H](CC1CCCCC1)[C@@H](O)CCSc1ccccn1 |
